The values below come from patent publication US11767322B2 (BRISTOL-MYERS SQUIBB COMPANY, priority 2020, dated 2023).

Where two headings read alike, the source gives them in different places.

In assay [1] the target is GST-tagged PIK3Cδ in complex with PIK3R1 (Homo sapiens, UniProt O00329). In words: PI3Kδ HTRF binding assay. The following applies: read-out: PIK3CD IC50. (In general: TR-FRET usually uses a lanthanide donor and a delayed reading to cut background.)
The target in assay [2] is T1, His-GST-TVMV-hRIPK1(1-324) (Homo sapiens, UniProt Q13546).
T1 construct: The coding region of human RIPK1(1-324) flanked by NdeI site at 5′ end; made in house; host or cells: Spodoptera frugiperda Sf9 insect cells (baculovirus, Bac-to-Bac)
T1 sequence (Q13546 1-324): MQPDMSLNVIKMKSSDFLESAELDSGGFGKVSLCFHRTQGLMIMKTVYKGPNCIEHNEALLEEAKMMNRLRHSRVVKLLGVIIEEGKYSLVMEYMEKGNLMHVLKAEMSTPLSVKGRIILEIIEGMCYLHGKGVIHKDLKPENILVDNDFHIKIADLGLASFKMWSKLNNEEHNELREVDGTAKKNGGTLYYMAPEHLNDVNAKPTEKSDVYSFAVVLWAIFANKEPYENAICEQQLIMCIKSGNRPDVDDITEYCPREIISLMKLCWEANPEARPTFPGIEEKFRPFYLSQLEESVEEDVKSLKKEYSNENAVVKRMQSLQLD
Put plainly: biochemical. The assay is classed as binding.

The test system of assay [3] is MLKL phosphorylation in HT29-L23 human colorectal adenocarcinoma cells. Put plainly: MLKL phosphorylation high-content assay. It counts as cell-based.
The mark [4] stands for this setting: HTRF probe displacement, 1 h at rt.
The mark [5] stands for this setting: HTRF probe displacement, 1 h at rt, read-out: RIPK1 IC50.
Setting [6] is: read-out: pMLKL IC50, HT29-L23 cells, necroptosis induced with TNFα, SMAC mimetic and Z-VAD, 6 h, maximal inhibition defined by Nec1s.
[7] abbreviates: Table 22, compounds of the present invention, read-out: RPIK1 IC50.
Setting [8] is: Homo sapiens, 6 h, read-out: pMLKL IC50, HT29-L23 cells, necroptosis induced with TNFα, SMAC mimetic and Z-VAD, 6 h, maximal inhibition defined by Nec1s.

Chain of GST-tagged PIK3Cδ in complex with PIK3R1 (O00329 whole entry): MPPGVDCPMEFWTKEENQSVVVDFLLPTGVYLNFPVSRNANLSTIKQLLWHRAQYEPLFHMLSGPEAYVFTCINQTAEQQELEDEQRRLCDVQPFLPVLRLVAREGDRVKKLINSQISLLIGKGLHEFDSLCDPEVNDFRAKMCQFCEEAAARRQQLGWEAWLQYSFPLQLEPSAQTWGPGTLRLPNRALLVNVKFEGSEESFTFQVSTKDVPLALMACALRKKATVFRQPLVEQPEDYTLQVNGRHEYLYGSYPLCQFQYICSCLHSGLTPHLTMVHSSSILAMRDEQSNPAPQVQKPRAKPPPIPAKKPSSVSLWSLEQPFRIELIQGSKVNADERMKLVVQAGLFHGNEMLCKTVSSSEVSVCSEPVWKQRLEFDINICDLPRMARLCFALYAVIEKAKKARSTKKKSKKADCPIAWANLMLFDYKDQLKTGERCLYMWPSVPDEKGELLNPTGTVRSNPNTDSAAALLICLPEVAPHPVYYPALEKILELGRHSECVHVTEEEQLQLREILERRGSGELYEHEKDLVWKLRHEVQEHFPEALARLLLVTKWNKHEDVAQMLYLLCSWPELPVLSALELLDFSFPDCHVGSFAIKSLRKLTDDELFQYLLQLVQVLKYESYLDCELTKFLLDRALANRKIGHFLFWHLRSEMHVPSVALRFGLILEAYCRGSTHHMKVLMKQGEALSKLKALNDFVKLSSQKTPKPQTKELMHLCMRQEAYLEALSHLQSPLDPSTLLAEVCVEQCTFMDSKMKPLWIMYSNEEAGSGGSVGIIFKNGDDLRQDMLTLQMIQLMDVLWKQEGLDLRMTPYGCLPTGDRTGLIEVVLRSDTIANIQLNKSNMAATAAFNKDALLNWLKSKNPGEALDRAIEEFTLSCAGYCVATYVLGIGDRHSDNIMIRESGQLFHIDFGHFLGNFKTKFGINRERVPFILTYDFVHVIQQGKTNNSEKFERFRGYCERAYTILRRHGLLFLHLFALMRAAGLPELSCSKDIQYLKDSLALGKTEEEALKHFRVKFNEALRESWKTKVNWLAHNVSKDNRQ
Chain of GST-tagged PIK3Cδ in complex with PIK3R1 (P27986 whole entry partner): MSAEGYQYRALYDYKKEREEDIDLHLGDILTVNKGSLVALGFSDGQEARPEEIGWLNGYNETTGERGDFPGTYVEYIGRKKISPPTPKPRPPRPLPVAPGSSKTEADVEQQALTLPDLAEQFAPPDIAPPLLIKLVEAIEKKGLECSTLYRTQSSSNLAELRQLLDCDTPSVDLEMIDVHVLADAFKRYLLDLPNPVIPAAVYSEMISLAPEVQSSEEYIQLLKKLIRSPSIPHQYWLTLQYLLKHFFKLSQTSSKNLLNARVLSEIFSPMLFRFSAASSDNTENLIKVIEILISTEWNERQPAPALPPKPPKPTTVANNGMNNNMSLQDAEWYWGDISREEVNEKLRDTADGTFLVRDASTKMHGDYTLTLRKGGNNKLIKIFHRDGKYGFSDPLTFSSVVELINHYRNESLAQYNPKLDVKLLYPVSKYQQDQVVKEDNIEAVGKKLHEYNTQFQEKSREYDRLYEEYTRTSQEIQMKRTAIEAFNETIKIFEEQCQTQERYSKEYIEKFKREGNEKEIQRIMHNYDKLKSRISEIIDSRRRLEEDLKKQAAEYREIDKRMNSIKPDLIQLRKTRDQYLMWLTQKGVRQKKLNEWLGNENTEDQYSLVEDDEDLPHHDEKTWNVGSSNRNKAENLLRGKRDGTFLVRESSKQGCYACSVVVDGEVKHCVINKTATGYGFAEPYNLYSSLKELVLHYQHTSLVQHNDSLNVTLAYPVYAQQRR

As a reminder, the IC50 is the midpoint of a concentration-inhibition curve. With `Cc1ccc(-c2ccn3nc(N)nc3c2)c(F)c1C(=O)NCC(F)(F)C(O)c1ccc(F)cn1` (stereo not shown) [Example 270, 3-{2-amino-[1,2,4]triazolo[1,5-a]pyridin-7-yl}-N-[2,2-difluoro-3-(5-fluoropyridin-2-yl)-3-hydroxypropyl]-2-fluoro-6-methylbenzamide], the IC50 in assay [1] (setting [4]) is over 15000 nM; in assay [2] (setting [5]), 11 nM; in assay [3] (setting [6]), 3.1 nM.
Regarding `Cc1cc(F)c(-c2ccn3nc(N)nc3c2)cc1C(=O)NCCC(O)c1ccc(F)cc1` (single isomer, unassigned) [Example 9, 5-(2-amino-[1,2,4]triazolo[1,5-a]pyridin-7-yl)-4-fluoro-N-(3-(4-fluorophenyl)-3-hydroxypropyl)-2-methylbenzamide], the IC50 was over 15000 nM in assay [1] (setting [4]); 6.2 nM in assay [2] (setting [5]); 6.2 nM in assay [2] (setting [7]); 2.4 nM in assay [3] (setting [8]); 2.4 nM in assay [3] (Homo sapiens, read-out: pMLKL IC50, Table 22, compounds of the present invention).
In the case of `Cc1ccc(-c2ccn3nc(N)nc3c2)c(F)c1C(=O)NCCC(C)(C)c1ccccc1` [Example 58, 3-(2-amino-[1,2,4]triazolo[1,5-a]pyridin-7-yl)-2-fluoro-6-methyl-N-(3-methyl-3-phenylbutyl)benzamide], the concentration for half-maximal inhibition (IC50) in assay [1] (setting [4]) was over 15000 nM; in assay [2] (setting [5]) it was 2.1 nM; in assay [3] (setting [8]) it was 2.3 nM.
For the compound `Cc1ccc(-c2ccn3nc(N)nc3c2)c(F)c1C(=O)NCCC(O)c1ccc(F)cc1` (single isomer, unassigned) [Example 50, 3-(2-amino-[1,2,4]triazolo[1,5-a]pyridin-7-yl)-2-fluoro-N-(3-(4-fluorophenyl)-3-hydroxypropyl)-6-methylbenzamide], the concentration for half-maximal inhibition (IC50) in assay [1] (setting [4]) is over 15000 nM; in assay [2] (setting [5]), 0.3 nM; in assay [3] (setting [8]), 1.9 nM.
In the case of `Nc1nc2cc(-c3ccc(Cl)c(C(=O)NCC(F)(F)C(O)c4ccc(Cl)c(F)c4)c3F)ccn2n1` (stereo not shown) [Example 190, 3-(2-amino-[1,2,4]triazolo[1,5-a]pyridin-7-yl)-6-chloro-N-(3-(4-chloro-3-fluorophenyl)-2,2-difluoro-3-hydroxypropyl)-2-fluorobenzamide], the IC50 in assay [1] (setting [4]) is over 15000 nM; in assay [2] (setting [5]) it was 3.3 nM; in assay [3] (setting [8]), 0.7 nM.
For `Nc1nc2cc(-c3ccc(F)c(C(=O)NCCC4(c5ccc(F)cc5)CC4)c3F)ccn2n1` [Example 249, 3-(2-amino-[1,2,4]triazolo[1,5-a]pyridin-7-yl)-2,6-difluoro-N-(2-(1-(4-fluorophenyl)cyclopropyl)ethyl)benzamide], the figures for the IC50 in assay [1] (setting [4]), in assay [2] (setting [5]) and in assay [3] (setting [8]) were over 15000 nM, 2.1 nM and 10 nM, respectively.
For `Nc1nc2cc(-c3ccc(Cl)c(C(=O)NCC[C@@H](O)c4ccc(Cl)cc4)c3F)ccn2n1` [Example 154, (R)-3-(2-amino-[1,2,4]triazolo[1,5-a]pyridin-7-yl)-6-chloro-N-(3-(4-chlorophenyl)-3-hydroxypropyl)-2-fluorobenzamide] the same measures were over 15000 nM, 4.7 nM and 1.4 nM.
On to `Cc1ccc(-c2ccn3nc(N)nc3c2)c(F)c1C(=O)NC(CF)CC(O)c1ccc(F)cc1` (single isomer, unassigned) [Example 26, 3-(2-amino-[1,2,4]triazolo[1,5-a]pyridin-7-yl)-2-fluoro-N-(1-fluoro-4-(4-fluorophenyl)-4-hydroxybutan-2-yl)-6-methylbenzamide], for which the figures for the half-inhibitory concentration (IC50) in assay [1] (setting [4]), in assay [2] (setting [5]) and in assay [3] (setting [6]) were over 15000 nM, 233 nM and 696 nM, respectively.
Regarding `Cc1ccc(-c2ccn3nc(N)nc3c2)c(F)c1C(=O)NCCC(O)c1ccc(F)c(F)c1` (single isomer, unassigned) [Example 67, 3-(2-amino-[1,2,4]triazolo[1,5-a]pyridin-7-yl)-N-(3-(3,4-difluorophenyl)-3-hydroxypropyl)-2-fluoro-6-methylbenzamide], the IC50 in assay [1] (setting [4]) was over 15000 nM; in assay [2] (setting [5]), 4.4 nM; in assay [2] (setting [7]), 4.4 nM; in assay [3] (setting [6]), 1.3 nM; in assay [3] (read-out: pMLKL IC50, Table 22, compounds of the present invention) it was 1.3 nM.
For the compound `Cc1ccc(-c2ccn3nc(N)nc3c2)c(F)c1C(=O)NCCC(O)c1ccc(Cl)cc1F` (single isomer, unassigned) [Example 69, 3-(2-amino-[1,2,4]triazolo[1,5-a]pyridin-7-yl)-N-(3-(4-chloro-2-fluorophenyl)-3-hydroxypropyl)-2-fluoro-6-methylbenzamide], the results for the 50% inhibitory concentration (IC50) in assay [1] (setting [4]), in assay [2] (setting [5]) and in assay [3] (setting [6]) were over 15000 nM, 1.4 nM and 0.4 nM, respectively.
Take `Cc1ccc(-c2ccn3nc(N)nc3c2)c(F)c1C(=O)NCCC(O)c1cccc(Cl)c1` (stereo not shown) [Example 43, 3-(2-amino-[1,2,4]triazolo[1,5-a]pyridin-7-yl)-N-(3-(3-chlorophenyl)-3-hydroxypropyl)-2-fluoro-6-methylbenzamide]: the IC50 amounted to 11000 nM in assay [1], 3.2 nM in assay [2] (setting [5]) and 2.6 nM in assay [3] (setting [8]).
`Nc1nc2cc(-c3ccc(Cl)c(C(=O)NCC(F)(F)C(O)c4ccc(Cl)c(Cl)n4)c3F)ccn2n1` (single isomer, unassigned) [Example 272, 3-(2-amino-[1,2,4]triazolo[1,5-a]pyridin-7-y)-6-chloro-N-(3-(5,6-dichloropyridin-2-yl)-2,2-difluoro-3-hydroxypropyl)-2-fluorobenzamide]: the IC50 in assay [1] (setting [4]) was over 15000 nM; in assay [2] (setting [5]), 6.8 nM; in assay [3] (setting [8]), 11 nM.
As for `COc1c(-c2ccc(C)c(C(=O)NCC(F)(F)C(O)c3ccc(F)cc3)c2F)ccn2nc(N)nc12` (single isomer, unassigned; enantiomer 1) [Example 135], the IC50 in assay [1] (setting [4]) was over 15000 nM; in assay [2] (RIPK1 IC50), 5.6 nM; in assay [3] (HT29-L23 cells, necroptosis induced with TNFα, SMAC mimetic and Z-VAD, 6 h, maximal inhibition defined by Nec1s, read-out: pMLKL IC50), 0.5 nM.
In the case of `Cc1ccc(-c2ccn3nc(N)nc3c2)c(F)c1C(=O)NCCC(c1ccccc1)C(F)(F)F` (single isomer, unassigned) [Example 12, 3-(2-amino-[1,2,4]triazolo[1,5-a]pyridin-7-yl)-2-fluoro-6-methyl-N-(4,4,4-trifluoro-3-phenylbutyl)benzamide], the IC50 in assay [1] (setting [4]) was over 15000 nM; in assay [2] (setting [5]), 3 nM; in assay [3] (setting [6]), 9.2 nM.
For `Cc1ccc(-c2ccn3nc(N)nc3c2)c(F)c1C(=O)NCCC(O)c1ccc(F)cc1` (single isomer, unassigned) [Example 51, 3-(2-amino-[1,2,4]triazolo[1,5-a]pyridin-7-yl)-2-fluoro-N-(3-(4-fluorophenyl)-3-hydroxypropyl)-6-methylbenzamide], the IC50 in assay [1] (setting [4]) is over 15000 nM; in assay [2] (setting [5]), 3.7 nM; in assay [3] (setting [6]) it was 1.8 nM.
For the compound `Cc1ccc(-c2ccn3nc(N)nc3c2)c(F)c1C(=O)NCCC(O)C1CCCCC1` (single isomer, unassigned) [Example 42, 3-(2-amino-[1,2,4]triazolo[1,5-a]pyridin-7-yl)-N-(3-cyclohexyl-3-hydroxypropyl)-2-fluoro-6-methylbenzamide], the IC50 in assay [1] (setting [4]) was over 15000 nM; in assay [2] (setting [5]) it was 1.3 nM; in assay [3] (setting [6]), 2.8 nM.
For `Cc1cc(F)c(-c2ccn3nc(N)nc3c2)cc1C(=O)NCC(F)(F)C(O)c1ccc(F)cc1` (single isomer, unassigned) [Example 98, 5-(2-amino-[1,2,4]triazolo[1,5-a]pyridin-7-yl)-N-(2,2-difluoro-3-(4-fluorophenyl)-3-hydroxypropyl)-4-fluoro-2-methylbenzamide] the same measures were over 15000 nM, 2.8 nM and 1.2 nM.
